# Key:
# [1] = tested on: IPOHE Morningglory, Ivyleaf; assay: Postemergence herbicidal evaluation, IPOHE; type: in vivo, Ipomoea hederacea, (L.) Jacq.; set-up: scale not given here; conditions: rated two - three weeks after treatment
# In short: (§1)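 Postemergence spray, 40 psi nozzle, on ~2-week seedlings. Carrier: acetone/water 80/20, 1.0% methylated seed oil; dose ~0.006–0.400 kg/ha. Scored visually at 2–3 weeks.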
# [2] = tested on: ZEAMX Corn, Field; assay: Preemergence herbicidal evaluation, ZEAMX; type: in vivo, Zea mays, L. (Sammel-Bezeichnung); set-up: scale not given here; conditions: rated four to five weeks after treatment
# In short: (§2)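 Seeds mixed with potting soil in cups, then sprayed preemergence with aqueous acetone test solution at about 0.013 to 0.800 kg per hectare equivalent. Cups kept under standard greenhouse care; plants rated on a visual scale four to five weeks after treatment.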
# [3] = tested on: ECHOG Barnyardgrass; assay: Postemergence herbicidal evaluation, ECHOG; type: in vivo, Echinochloa crus-galli, (L.) Beau; set-up: scale not given here; conditions: rated two - three weeks after treatment
# In short: as §1
# [4] = tested on: ORYSAT Rice, Tebonnet; assay: Preemergence herbicidal evaluation, ORYSAT; type: in vivo, Oryza sativa, (L.); set-up: scale not given here; conditions: rated four to five weeks after treatment
# In short: as §2
# [5] = tested on: AMBEL Ragweed, Common; assay: Preemergence herbicidal evaluation, AMBEL; type: in vivo, Ambrosia artemisifolia, L.; set-up: scale not given here; conditions: rated four to five weeks after treatment
# In short: as §2
# [6] = tested on: IPOHE Morningglory, Ivyleaf; assay: Preemergence herbicidal evaluation, IPOHE; type: in vivo, Ipomoea hederacea, (L.) Jacq.; set-up: scale not given here; conditions: rated four to five weeks after treatment
# In short: as §2
# [7] = tested on: GALAP Galium; assay: Postemergence herbicidal evaluation, GALAP; type: in vivo, Galium aparine; set-up: scale not given here; conditions: rated two - three weeks after treatment
# In short: as §1
# [8] = tested on: SETVI Foxtail, Green; assay: Preemergence herbicidal evaluation, SETVI; type: in vivo, Setaria viridis, (L.) Beau; set-up: scale not given here; conditions: rated four to five weeks after treatment
# In short: as §2
# [9] = tested on: CHEAL Lambsquarters, Common; assay: Postemergence herbicidal evaluation, CHEAL; type: in vivo, Chenopodium album, L.; set-up: scale not given here; conditions: rated two - three weeks after treatment
# In short: as §1
# [10] = tested on: CASOB Sicklepod; assay: Postemergence herbicidal evaluation, CASOB; type: in vivo, Cassia obtusifolia, L.; set-up: scale not given here; conditions: rated two - three weeks after treatment
# In short: as §1
# [11] = tested on: GLXMAW Soybean, Williams; assay: Preemergence herbicidal evaluation, GLXMAW; type: in vivo, Glycine max, (L.) Merr. cv Williams; set-up: scale not given here; conditions: rated four to five weeks after treatment
# In short: as §2
# [12] = tested on: GALAP Galium; assay: Preemergence herbicidal evaluation, GALAP; type: in vivo, Galium aparine; set-up: scale not given here; conditions: rated four to five weeks after treatment
# In short: as §2
# [13] = tested on: ORYSAT Rice, Tebonnet; assay: Postemergence herbicidal evaluation, ORYSAT; type: in vivo, Oryza sativa, (L.); set-up: scale not given here; conditions: rated two - three weeks after treatment
# In short: as §1
# [14] = tested on: AMBEL Ragweed, Common; assay: Postemergence herbicidal evaluation, AMBEL; type: in vivo, Ambrosia artemisifolia, L.; set-up: scale not given here; conditions: rated two - three weeks after treatment
# In short: as §1
# [15] = tested on: ABUTH Velvetleaf; assay: Preemergence herbicidal evaluation, ABUTH; type: in vivo, Abutilon theophrasti, Medic.; set-up: scale not given here; conditions: rated four to five weeks after treatment
# In short: as §2
# [16] = tested on: TRZAWR Wheat, Winter, cv Riband; assay: Preemergence herbicidal evaluation, TRZAWR; type: in vivo, Triticum aestivum; set-up: scale not given here; conditions: rated four to five weeks after treatment
# In short: as §2
# [17] = tested on: CASOB Sicklepod; assay: Preemergence herbicidal evaluation, CASOB; type: in vivo, Cassia obtusifolia, L.; set-up: scale not given here; conditions: rated four to five weeks after treatment
# In short: as §2
# [18] = tested on: CHEAL Lambsquarters, Common; assay: Preemergence herbicidal evaluation, CHEAL; type: in vivo, Chenopodium album, L.; set-up: scale not given here; conditions: rated four to five weeks after treatment
# In short: as §2
# [19] = tested on: ECHOG Barnyardgrass; assay: Preemergence herbicidal evaluation, ECHOG; type: in vivo, Echinochloa crus-galli, (L.) Beau; set-up: scale not given here; conditions: rated four to five weeks after treatment
# In short: as §2
# [20] = tested on: SETVI Foxtail, Green; assay: Postemergence herbicidal evaluation, SETVI; type: in vivo, Setaria viridis, (L.) Beau; set-up: scale not given here; conditions: rated two - three weeks after treatment
# In short: as §1
# [21] = tested on: ZEAMX Corn, Field; assay: Postemergence herbicidal evaluation, ZEAMX; type: in vivo, Zea mays, L. (Sammel-Bezeichnung); set-up: scale not given here; conditions: rated two - three weeks after treatment
# In short: as §1
# [22] = tested on: TRZAWR Wheat, Winter, cv Riband; assay: Postemergence herbicidal evaluation, TRZAWR; type: in vivo, Triticum aestivum; set-up: scale not given here; conditions: rated two - three weeks after treatment
# In short: as §1
# [23] = tested on: GLXMAW Soybean, Williams; assay: Postemergence herbicidal evaluation, GLXMAW; type: in vivo, Glycine max, (L.) Merr. cv Williams; set-up: scale not given here; conditions: rated two - three weeks after treatment
# In short: as §1
# [24] = tested on: ABUTH Velvetleaf; assay: Postemergence herbicidal evaluation, ABUTH; type: in vivo, Abutilon theophrasti, Medic.; set-up: scale not given here; conditions: rated two - three weeks after treatment
# In short: as §1
smiles,measurement,setting,value
"CCc1cccc(-n2nnc3cc(F)c(-n4c(=O)cc(C(F)(F)F)[nH]c4=O)cc32)c1 [Example 13, 3-[1-(3-ethylphenyl)-5-fluoro-1H-1,2,3-benzotriazol-6-yl]-6-(trifluoromethyl)-2,4(1H,3H)-pyrimidinedione]",melting point,,160 °C
COC(=O)COc1ccc(-n2nnc3cc(F)c(-n4c(=O)cc(C(F)(F)F)n(C)c4=O)cc32)cc1 [Example 45],Postemergence herbicidal rating IPOHE,[1]; rate 0.008 kg/ha,9.0
same,Postemergence herbicidal rating IPOHE,[1]; rate 0.016 kg/ha,9.0
same,Postemergence herbicidal rating IPOHE,[1]; rate 0.032 kg/ha,9.0
same,Postemergence herbicidal rating IPOHE,[1]; rate 0.062 kg/ha,9.0
same,"Preemergence herbicidal rating, ZEAMX",[2]; rate 0.016 kg/ha,0.0
same,"Preemergence herbicidal rating, ZEAMX",[2]; rate 0.032 kg/ha,0.0
same,"Preemergence herbicidal rating, ZEAMX",[2]; rate 0.062 kg/ha,0.0
same,"Preemergence herbicidal rating, ZEAMX",[2]; rate 0.125 kg/ha,0.0
same,Postemergence herbicidal rating ECHCG,[3]; rate 0.008 kg/ha,0.0
same,Postemergence herbicidal rating ECHCG,[3]; rate 0.016 kg/ha,5.0
same,Postemergence herbicidal rating ECHCG,[3]; rate 0.032 kg/ha,8.0
same,Postemergence herbicidal rating ECHCG,[3]; rate 0.062 kg/ha,9.0
same,"Preemergence herbicidal rating, ORYSAT",[4]; rate 0.016 kg/ha,0.0
same,"Preemergence herbicidal rating, ORYSAT",[4]; rate 0.032 kg/ha,0.0
same,"Preemergence herbicidal rating, ORYSAT",[4]; rate 0.062 kg/ha,0.0
same,"Preemergence herbicidal rating, ORYSAT",[4]; rate 0.125 kg/ha,5.0
same,"Preemergence herbicidal rating, AMBEL",[5]; rate 0.016 kg/ha,0.0
same,"Preemergence herbicidal rating, AMBEL",[5]; rate 0.032 kg/ha,0.0
same,"Preemergence herbicidal rating, AMBEL",[5]; rate 0.062 kg/ha,0.0
same,"Preemergence herbicidal rating, AMBEL",[5]; rate 0.125 kg/ha,0.0
same,"Preemergence herbicidal rating, IPOHE",[6]; rate 0.016 kg/ha,0.0
same,"Preemergence herbicidal rating, IPOHE",[6]; rate 0.032 kg/ha,0.0
same,"Preemergence herbicidal rating, IPOHE",[6]; rate 0.062 kg/ha,0.0
same,"Preemergence herbicidal rating, IPOHE",[6]; rate 0.125 kg/ha,4.0
same,Postemergence herbicidal rating GALAP,[7]; rate 0.008 kg/ha,0.0
same,Postemergence herbicidal rating GALAP,[7]; rate 0.016 kg/ha,0.0
same,Postemergence herbicidal rating GALAP,[7]; rate 0.032 kg/ha,1.0
same,Postemergence herbicidal rating GALAP,[7]; rate 0.062 kg/ha,3.0
same,"Preemergence herbicidal rating, SETVI",[8]; rate 0.016 kg/ha,0.0
same,"Preemergence herbicidal rating, SETVI",[8]; rate 0.032 kg/ha,0.0
same,"Preemergence herbicidal rating, SETVI",[8]; rate 0.062 kg/ha,9.0
same,"Preemergence herbicidal rating, SETVI",[8]; rate 0.125 kg/ha,9.0
same,Postemergence herbicidal rating CHEAL,[9]; rate 0.008 kg/ha,2.0
same,Postemergence herbicidal rating CHEAL,[9]; rate 0.016 kg/ha,4.0
same,Postemergence herbicidal rating CHEAL,[9]; rate 0.032 kg/ha,7.0
same,Postemergence herbicidal rating CHEAL,[9]; rate 0.062 kg/ha,7.0
same,Postemergence herbicidal rating CASOB,[10]; rate 0.008 kg/ha,0.0
same,Postemergence herbicidal rating CASOB,[10]; rate 0.016 kg/ha,0.0
same,Postemergence herbicidal rating CASOB,[10]; rate 0.032 kg/ha,4.0
same,Postemergence herbicidal rating CASOB,[10]; rate 0.062 kg/ha,5.0
same,"Preemergence herbicidal rating, GLXMAW",[11]; rate 0.016 kg/ha,0.0
same,"Preemergence herbicidal rating, GLXMAW",[11]; rate 0.032 kg/ha,0.0
same,"Preemergence herbicidal rating, GLXMAW",[11]; rate 0.062 kg/ha,0.0
same,"Preemergence herbicidal rating, GLXMAW",[11]; rate 0.125 kg/ha,1.0
same,"Preemergence herbicidal rating, GALAP",[12]; rate 0.016 kg/ha,0.0
same,"Preemergence herbicidal rating, GALAP",[12]; rate 0.032 kg/ha,0.0
same,"Preemergence herbicidal rating, GALAP",[12]; rate 0.062 kg/ha,4.0
same,"Preemergence herbicidal rating, GALAP",[12]; rate 0.125 kg/ha,4.0
same,Postemergence herbicidal rating ORYSAT,[13]; rate 0.008 kg/ha,0.5
same,Postemergence herbicidal rating ORYSAT,[13]; rate 0.016 kg/ha,1.0
same,Postemergence herbicidal rating ORYSAT,[13]; rate 0.032 kg/ha,2.0
same,Postemergence herbicidal rating ORYSAT,[13]; rate 0.062 kg/ha,3.5
same,Postemergence herbicidal rating AMBEL,[14]; rate 0.008 kg/ha,2.0
same,Postemergence herbicidal rating AMBEL,[14]; rate 0.016 kg/ha,3.0
same,Postemergence herbicidal rating AMBEL,[14]; rate 0.032 kg/ha,7.0
same,Postemergence herbicidal rating AMBEL,[14]; rate 0.062 kg/ha,9.0
same,"Preemergence herbicidal rating, ABUTH",[15]; rate 0.016 kg/ha,0.0
same,"Preemergence herbicidal rating, ABUTH",[15]; rate 0.032 kg/ha,0.0
same,"Preemergence herbicidal rating, ABUTH",[15]; rate 0.062 kg/ha,4.0
same,"Preemergence herbicidal rating, ABUTH",[15]; rate 0.125 kg/ha,9.0
same,"Preemergence herbicidal rating, TRZAWR",[16]; rate 0.016 kg/ha,0.0
same,"Preemergence herbicidal rating, TRZAWR",[16]; rate 0.032 kg/ha,0.0
same,"Preemergence herbicidal rating, TRZAWR",[16]; rate 0.062 kg/ha,0.0
same,"Preemergence herbicidal rating, TRZAWR",[16]; rate 0.125 kg/ha,1.0
same,"Preemergence herbicidal rating, CASOB",[17]; rate 0.016 kg/ha,0.0
same,"Preemergence herbicidal rating, CASOB",[17]; rate 0.032 kg/ha,0.0
same,"Preemergence herbicidal rating, CASOB",[17]; rate 0.062 kg/ha,0.0
same,"Preemergence herbicidal rating, CHEAL",[18]; rate 0.016 kg/ha,0.0
same,"Preemergence herbicidal rating, CHEAL",[18]; rate 0.032 kg/ha,0.0
same,"Preemergence herbicidal rating, CHEAL",[18]; rate 0.062 kg/ha,9.0
same,"Preemergence herbicidal rating, CHEAL",[18]; rate 0.125 kg/ha,9.0
same,"Preemergence herbicidal rating, ECHCG",[19]; rate 0.016 kg/ha,0.0
same,"Preemergence herbicidal rating, ECHCG",[19]; rate 0.032 kg/ha,0.0
same,"Preemergence herbicidal rating, ECHCG",[19]; rate 0.062 kg/ha,0.0
same,"Preemergence herbicidal rating, ECHCG",[19]; rate 0.125 kg/ha,0.0
same,Postemergence herbicidal rating SETVI,[20]; rate 0.008 kg/ha,3.0
same,Postemergence herbicidal rating SETVI,[20]; rate 0.016 kg/ha,8.0
same,Postemergence herbicidal rating SETVI,[20]; rate 0.032 kg/ha,9.0
same,Postemergence herbicidal rating SETVI,[20]; rate 0.062 kg/ha,9.0
same,Postemergence herbicidal rating ZEAMX,[21]; rate 0.008 kg/ha,7.5
same,Postemergence herbicidal rating ZEAMX,[21]; rate 0.016 kg/ha,8.0
same,Postemergence herbicidal rating ZEAMX,[21]; rate 0.032 kg/ha,8.0
same,Postemergence herbicidal rating ZEAMX,[21]; rate 0.062 kg/ha,9.0
same,Postemergence herbicidal rating TRZAWR,[22]; rate 0.008 kg/ha,4.0
same,Postemergence herbicidal rating TRZAWR,[22]; rate 0.016 kg/ha,6.0
same,Postemergence herbicidal rating TRZAWR,[22]; rate 0.032 kg/ha,6.0
same,Postemergence herbicidal rating TRZAWR,[22]; rate 0.062 kg/ha,8.0
same,Postemergence herbicidal rating GLXMAW,[23]; rate 0.008 kg/ha,6.0
same,Postemergence herbicidal rating GLXMAW,[23]; rate 0.016 kg/ha,6.5
same,Postemergence herbicidal rating GLXMAW,[23]; rate 0.032 kg/ha,8.0
same,Postemergence herbicidal rating GLXMAW,[23]; rate 0.062 kg/ha,8.0
same,Postemergence herbicidal rating ABUTH,[24]; rate 0.008 kg/ha,9.0
same,Postemergence herbicidal rating ABUTH,[24]; rate 0.016 kg/ha,9.0
same,Postemergence herbicidal rating ABUTH,[24]; rate 0.032 kg/ha,9.0
same,Postemergence herbicidal rating ABUTH,[24]; rate 0.062 kg/ha,9.0

# Source: patent publication US20020111274A1, “1-alkyl-3-[1-(substituted phenyl) benzotriazol-6-yl] uracils” (BASF Aktiengesellschaft, priority 2000, published 2002)
